According to patent EP4537820A1, “COMPOUND AND COMBINATIONS COMPRISING SAID COMPOUND TO IMPROVE IMMUNE RESPONSE” (Institut Gustave-Roussy, priority 2023, dated 2025):

How the values were obtained:
[1] = biological target: T1, 20S-REGγ complex (Homo sapiens, UniProt P61289); test: First confirmatory counter-screen of hits, fluorescence kinetic proteasome activity test; assay type: biochemical; conditions: counter-screen at 10, 20 and 40µM, 90min kinetic assay
T1 construct: purchased Biotechne E-360-050 (20S); E-384-MTO (REGγ); host or cells: 20S from human erythrocytes
Procedure: The 3 chemical libraries tested were obtained from the NIH : The Natural Products set (NP.V) consisting of 390 compounds, the Oncology Approved Drugs set (AOD.IX) consisting of 147 FDA-approved compounds and the Diversity set (DIV.VI) consisting of 1584 compounds. Libraries were prepared and screened with a Biomek FXP workstation in 384 well plates. Compounds activity was assessed using a fluorescence activity test of the proteasome using the Bz-VGR-AMC fluorogenic substrate (#BML-BW9375-0005, Enzo Life Sciences). […] After preparation of the mix, plates were incubated for 2h at 37°C before being read on a Spectramax i3 microplate reader from Molecular devices (Excitation wavelength : 345nm; Emission wavelength : 445nm). […]
After QC verification, each plate was normalized to the mean of the VGR control. For every quadruplicate the most different value from the mean was eliminated and the fluorescence mean for each compound was calculated on the 3 remaining values. The percentage of inhibition of a compound was calculated according to, as follows : %Inhibition(compound) = (MeanREG,plate −Meancompound)/(MeanREG,plate −Mean20S,plate) × 100, [formula] for the condition with REG[…]. […]
After conducting the screening and validating the quality control using a custom algorithm, they analyzed the data to select their hits. […]

[2] = tested on: human constitutive 20S proteasome (h20S); test: Peptide degradation assay with Fluorescamine (KH-52), 20S alone; assay type: biochemical; conditions: different concentrations tested, 37°C
Procedure: Degradation of the 52 amino acid peptide KH-52: […], Boulpicante et al.) by the 20S proteasome was followed by amino-acid group generation using Fluorescamine (#F9015, Sigma-Aldrich). The peptide substrate was incubated at 100µM with 25nM 20S, with or without 160nM REGγ and with different concentration of the tested compounds or DMSO. Assays were performed in 100µL in phosphate buffer (pH 6.8) and incubated at 37°C in a water bath for 8 hours. After 4, 6 and 8 hours, 22µL of sample were retrieved and added to 88µL of phosphate buffer before being stored at - 20°C prior to revelation. For the revelation, samples were thawed and filtered in a centrifuge 20min at 4°C 1kDa filters (#OD003C34, Pall Corporation). To avoid any amino group contamination, filtered were washed in phosphate buffer before use. 20µL of filtered-sample were plated in triplicates in a black 96-wells plate (#237108, Thermo Scientific) and 10µL of fluorescamine (1mg/mL, in 100% acetone) was added to the samples. The plate was placed on agitation for 1min before the reaction was stopped by adding 200µL of water to each well. The fluorescence intensity was measured using a FluoSTAR plate reader (BMG Labtech) with excitation wavelength at 355nm and emission wavelength at 460nm.
These findings were established through both in vitro degradation assays and T cell experiments. […]

T1 sequence (P61289 whole entry, one chain of several): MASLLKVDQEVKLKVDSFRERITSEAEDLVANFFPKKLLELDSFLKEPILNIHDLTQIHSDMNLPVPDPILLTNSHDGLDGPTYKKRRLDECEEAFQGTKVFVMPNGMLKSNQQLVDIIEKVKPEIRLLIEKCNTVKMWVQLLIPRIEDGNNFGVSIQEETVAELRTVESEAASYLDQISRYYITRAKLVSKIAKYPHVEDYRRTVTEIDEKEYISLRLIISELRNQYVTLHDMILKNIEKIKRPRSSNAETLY

Cc1ccc(N=Nc2ccc(C)cc2NC(=O)Nc2ccccc2F)cc1 [compound 58]
inhibition of the effect of REGγ on proteasomal protein degradation [1]: inhibit the effect of REGγ on proteasomal protein degradation | rate of peptide bond hydrolysis of KH-52 [2]: no impact
